Assay results from patent US11214772B2, “Production method for retinal tissue” (SUMITOMO DAINIPPON PHARMA CO., LTD., priority 2014, dated 2022).

Key:
Type in all cases: cell-based
[1] = test system: human iPS cells (1231A3 strain); experiment: Immunostaining of aggregate cryosections for retinal tissue markers Chx10 and Rx
Description: The above cell aggregates on day 19 after the start of suspension culturing were each fixed with 4% para-formaldehyde to give cryosections. These cryosections were immunostained for Chx10 (anti-Chx10 antibody, manufactured by Exalpha, sheep), which is one of the retinal tissue markers, or Rx (anti-Rx antibody, manufactured by TAKARA, guinea pig), which is one of the retinal tissue markers. In judgment of whether the above marker is positive in the immunostaining analysis, a fluorescence intensity which is not less than 2 times higher than that of the background was taken as positive.
The thus-prepared cell aggregates on day 18 after the start of suspension culturing, which were produced by adding SAG in step 2 from feeder-free iPS cells as a starting material, were fixed with 4% para-formaldehyde to produce frozen sections. These frozen sections were immunostained for Chx10 (anti-Chx10 antibody, Exalpha, sheep), which is one of the retinal tissue markers, or Rx (anti-Rx antibody, manufactured by TAKARA, guinea pig), which is one of the retinal tissue markers. These immunostained sections were observed under an inverted fluorescence microscope.
The cell aggregates on day 18 after the start of suspension culturing were fixed with 4% para-formaldehyde to produce frozen sections. These frozen sections were immunostained for Chx10 (anti-Chx10 antibody, Exalpha, sheep), which is one of the retinal tissue markers.

[2] = test system: human iPS cells (1231A3 strain); experiment: Bright field observation of cell aggregates in suspension culture (aggregate shape, neuroepithelium / neural tissue formation)
Method: The above subconfluent human iPS cells were treated with a cell dispersion solution by using TrypLE Select (Life Technologies), and further dispersed into single cells by a pipetting operation. Thereafter, the above human iPS cells dispersed into single cells were suspended in 100 μl of a serum-free medium in a non-cell-adhesive 96 well culture plate (PrimeSurface 96V-bottom plate, SUMITOMO BAKELITE) at 1.2×10^4 cells per well, and subjected to suspension culturing at 37° C., 5% CO2. As a serum-free medium (gfCDM+KSR) therefor, a 1:1 mixture of F-12 medium and IMDM medium supplemented with 10% KSR, 450 μM 1-monothioglycerol, 1× Chemically defined lipid concentrate was used. At the start of the suspension culturing (on day 0 after the start of suspension culturing, step 2 start), Y27632 (final concentration 20 μM) was added to the above serum-free medium. By day 2 after the start of suspension culturing, cell aggregates were formed (step 2 completed, and step 3 start). On day 3 after the start of suspension culturing, a serum-free medium (50 μl) free of Y27632 was added.
On day 6 after the start of suspension culturing, a half amount of the medium was changed with a medium free of Y27632 and containing or not containing human recombinant BMP4 (manufactured by R&D) to adjust the final concentration of exogenous human recombinant BMP4 to 1.5 nM (55 ng/ml, FIG. 1B) or to give a medium free of exogenous human recombinant BMP4 (FIG. 1A). As the half-medium exchange operation, a half volume of the medium in the culture vessel, namely 75 μl, was discarded, the above fresh serum-free medium (75 μl) was added to adjust the total medium amount to 150 μl. Thereafter, a half amount of the medium was changed with the above serum-free medium free of Y27632 and human recombinant BMP4 once per 2-4 days. […]
The thus-prepared subconfluent human iPS cells were treated with a cell dispersion solution by using TrypLE Select (Life Technologies), and further dispersed into single cells by a pipetting operation. Thereafter, the above human iPS cells dispersed into single cells were suspended in 100 μl of a serum-free medium in a non-cell-adhesive 96 well culture plate (PrimeSurface 96V-bottom plate, SUMITOMO BAKELITE) at 1.2×10^4 cells per well, and subjected to suspension culturing at 37° C., 5% CO2. As a serum-free medium (gfCDM+KSR) therefor, a 1:1 mixture of F-12 medium and IMDM medium supplemented with 10% KSR, 450 μM 1-monothioglycerol, 1× Chemically defined lipid concentrate was used. […] By day 2 after the start of suspension culturing, cell aggregates were formed (step 2 completed, step 3 start). On day 3 after the start of suspension culturing, a serum-free medium (50 μl) free of Y27632 and SAG was added. On day 6 after the start of suspension culturing, a half amount of the medium was changed with a medium free of Y27632 and containing or not containing human recombinant BMP4 (manufactured by R&D) to adjust the final concentration of exogenous human recombinant BMP4 to 1.5 nM (55 ng/ml, FIG. 1D) or to give a medium free of exogenous human recombinant BMP4 (FIG. 1C). As the half-medium exchange operation, a half volume of the medium in the culture vessel, namely 75 μl, was discarded, the above fresh serum-free medium (75 μl) was added to adjust the total medium amount to 150 μl. Thereafter, a half amount of the medium was changed with the above serum-free medium free of Y27632, SAG and human recombinant BMP4 once per 2-4 days. […]
The thus-prepared subconfluent human iPS cells were treated with the cell dispersion solution by using TrypLE Select (Life Technologies), further dispersed into single cells by pipetting operation, and the above human iPS cells dispersed into single cells were suspended in 100 μl of a serum-free medium at 1.2×10^4 cells per well of a non-cell-adhesive 96-well culture plate (PrimeSurface 96V-bottom plate, manufactured by SUMITOMO BAKELITE). Thereafter, the cells were subjected to suspension culturing at 37° C., 5% CO2. […]

[3] = test system: human iPS cells (201B7 strain); experiment: Immunostaining of aggregate frozen sections for retinal tissue markers Chx10 and Rx; parameters: proportion of Chx10-positive cells: dose or concentration left out as unconfirmed; details: Example 3, Essential 8, SAG day 0, day 18
Description: Cell aggregates on day 18 after the start of suspension culturing were fixed with 4% para-formaldehyde to produce frozen sections. These frozen sections were immunostained for Chx10 (anti-Chx10 antibody, Exalpha, sheep), which is one of the retinal tissue markers, or Rx (anti-Rx antibody, manufactured by TAKARA, guinea pig), which is one of the retinal tissue markers.
Cell aggregates on day 18 after the start of suspension culturing were fixed with 4% para-formaldehyde to produce frozen sections. These frozen sections were immunostained for Chx10 (anti-Chx10 antibody, Exalpha, sheep), which is one of the retinal tissue markers.

[4] = Example 1, StemFit, SAG 300 nM day 0, BMP4 1.5 nM day 6, day 19
[5] = Example 1, StemFit, SAG 300 nM day 0, no BMP4, day 19
[6] = Example 4 Condition 1, SAG 300 nM day 0, BMP4 1.5 nM day 3, day 18
[7] = Example 4 Condition 2, SAG 300 nM day 0, BMP4 1.5 nM day 6, day 18
[8] = Example 5 Condition 1, SAG 600 nM day 0, BMP4 1.5 nM day 3, day 18
[9] = Example 5 Condition 2, SAG 600 nM day 0, BMP4 1.5 nM day 6, day 18
[10] = Example 2 Condition 3, Essential 8, SAG 300 nM day 0, no BMP4, day 18

In the case of `CNC1CCC(N(Cc2cccc(-c3ccncc3)c2)C(=O)c2sc3ccccc3c2Cl)CC1` (stereo not drawn) [SAG], the “proportion of Chx10-positive cells” value [1, 4] is reported as “not less than 60%”, the “proportion of Rx-positive cells in the total cells” value (“proportion of Rx-positive cells” for short) [1, 4] is reported as “not less than 60%” and the “proportion of Chx10-positive cells” value [1, 5] is reported as “less than 3%”. The “proportion of Rx-positive cells” value [1, 5] was “less than 3%”, the “proportion of Chx10-positive cells” value [1, 6] was “about 40%” and the “proportion of Rx-positive cells” value [1, 6] was “about 40%”. The “proportion of Chx10-positive cells” value [1, 7] was “about 40%”, the “proportion of Rx-positive cells” value [1, 7] was “about 40%” and the “proportion of Chx10-positive cells” value [1, 8] was “about 40%”. The “proportion of Rx-positive cells” value [1, 8] was “about 40%”, the “proportion of Chx10-positive cells” value [1, 9] was “about 40%” and the “proportion of Rx-positive cells” value [1, 9] was “about 40%”. The “presence of Chx10-positive cells in the cell aggregate” value ([1]; Example 7, SAG 30 nM or Shh 300 ng/ml day 0, BMP4 1.5 nM day 3, day 18) was “contained Chx10-positive cells”, the “aggregate shape and neuroepithelial structure (bright field)” value [2, 4] was “cell aggregates were maintained, and neuroepithelial structure was observed” and the “aggregate shape and neuroepithelial structure (bright field)” value [2, 5] was “cell aggregates were maintained, and neuroepithelial structure was observed”. For the same compound, the “aggregate shape and neuroepithelial structure (bright field)” value [2, 10] was “cell aggregates were maintained, and neuroepithelial structure was efficiently formed”, the “proportion of bad form aggregates (collapsed, free of neuroepithelium)” value [2, 10] was 6% and the “proportion of good form aggregates (containing many neuroepithelia)” value [2, 10] was 93%. The “aggregate shape and neuroepithelial structure (bright field)” value ([2]; Example 2 Condition 4, Essential 8, SAG 300 nM day 0, BMP4 1.5 nM day 6, day 18) was “cell aggregates were maintained, and neuroepithelial structure was efficiently formed”, the “aggregate shape and neural tissue formation (microscope)” value ([2]; Example 4 Condition 1, StemFit, SAG 300 nM day 0, BMP4 1.5 nM day 3, day 18) was “cell aggregates were maintained, and a neural tissue was formed” and the “aggregate shape and neural tissue formation (microscope)” value ([2]; Example 4 Condition 2, StemFit, SAG 300 nM day 0, BMP4 1.5 nM day 6, day 18) was “cell aggregates were maintained, and a neural tissue was formed”. The “aggregate shape and neural tissue formation (microscope)” value ([2]; Example 5 Condition 1, StemFit, SAG 600 nM day 0, BMP4 1.5 nM day 3, day 18) was “cell aggregates were maintained, and a neural tissue was formed”, the “aggregate shape and neural tissue formation (microscope)” value ([2]; Example 5 Condition 2, StemFit, SAG 600 nM day 0, BMP4 1.5 nM day 6, day 18) was “cell aggregates were maintained, and a neural tissue was formed” and the “aggregate growth and neuroepithelium formation (bright field)” value ([2]; Example 7, StemFit, SAG 30 nM, PMA 0.2 μM or human recombinant Shh 300 ng/ml day 0, BMP4 1.5 nM day 3, day 18) was “cell aggregates grew and neuroepithelium was formed”. For the same compound, the “proportion of Rx-positive cells” value ([3]; BMP4 1.5 nM day 6) was “not less than 40%”, the “proportion of Chx10-positive cells” value ([3]; no BMP4) was “not more than 3%” and the “proportion of Rx-positive cells” value ([3]; no BMP4) was “not more than 3%”.
